In article PMC9950073, “Alleviation of arthritis through prevention of neutrophil extracellular traps by an orally available inhibitor of protein arginine deiminase 4” (Scientific Reports, 2023):
“And” between values parts separate entries of the source, which are not always exact repeats. Equal entries are not always repeated.

Legend:
[1] = molecular target: T1, recombinant human PAD4 enzyme (Homo sapiens, UniProt Q9UM07); assay: PAD4 biochemical assay measuring ammonia release; conditions: 10 semi-log concentrations, figure box prints no unit, x axis μM, read-out: IC50, inhibition of PAD4 enzymatic activity
T1 construct: Full-length recombinant human PAD4 used in the assay was produced at Jubilant Biosys Ltd, Bangalore; made in house
T1 sequence (Q9UM07 whole entry): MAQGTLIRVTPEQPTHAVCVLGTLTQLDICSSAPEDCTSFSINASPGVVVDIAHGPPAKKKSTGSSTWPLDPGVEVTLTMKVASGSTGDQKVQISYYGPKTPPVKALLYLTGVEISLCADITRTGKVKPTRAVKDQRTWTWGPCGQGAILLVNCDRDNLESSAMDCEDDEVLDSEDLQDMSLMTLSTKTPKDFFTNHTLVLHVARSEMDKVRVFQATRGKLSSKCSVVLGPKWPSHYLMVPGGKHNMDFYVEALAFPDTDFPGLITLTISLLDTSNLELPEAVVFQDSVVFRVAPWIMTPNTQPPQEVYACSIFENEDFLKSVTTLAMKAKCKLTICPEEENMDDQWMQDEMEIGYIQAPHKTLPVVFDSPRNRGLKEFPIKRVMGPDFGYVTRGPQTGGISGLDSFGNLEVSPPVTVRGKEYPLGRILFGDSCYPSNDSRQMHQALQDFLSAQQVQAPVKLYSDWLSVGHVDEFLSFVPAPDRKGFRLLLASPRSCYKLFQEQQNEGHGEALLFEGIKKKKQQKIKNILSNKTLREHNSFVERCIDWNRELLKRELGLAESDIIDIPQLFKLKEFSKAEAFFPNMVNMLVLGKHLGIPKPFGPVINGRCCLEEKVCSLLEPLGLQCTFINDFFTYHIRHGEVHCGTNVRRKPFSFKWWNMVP
Method: This assay relies on the ammonia produced when peptidylarginine deiminase 4 (PAD4) deiminates Nα-Benzoyl-L-arginine ethyl ester (BAEE) (Sigma, Catalog No: B4500), a non-natural substrate. The ammonia reacts with a detector i.e., ortho-phthaladehyde (OPA) (Sigma, Catalog No: P0657) resulting in a fluorescent product that is then analyzed at an excitation wavelength of 410 nm and an emission wavelength of 470 nm[33]. Full-length recombinant human PAD4 used in the assay was produced at Jubilant Biosys Ltd, Bangalore. PAD4 enzyme (125 nM) was diluted in Assay Buffer (100 mM HEPES, 50 mM NaCl, 2 mM DTT, 0.6 mg/ml BSA, pH7) and incubated with different concentrations of JBI-589 for 60 min at room temperature and then the reaction was initiated by the addition of substrate (1.5 mM BAEE (sigma) in 100 mM HEPES, 50 mM NaCl, 500 μM CaCl2, 2 mM DTT, pH7) then incubated with 1.5 mM BAEE substrate (Sigma) for another 60 min. The reaction was then stopped by the addition of detection buffer containing 50 mM EDTA, 2.6 mM ortho-phthalaldehyde and 2 mM DTT and fluorescence was measured. IC50 values were determined by sigmoidal dose–response curve (variable slope) using GraphPad Prism 5 software. […]

mouse neutrophils = assay: In vitro NET assay, mouse neutrophils; assay type: cell-based; conditions: pretreatment 10 μM for 15 min, ionomycin 4 µM 4 h
Method: Mouse peripheral blood was collected by retro-orbital puncture in ethylenediaminetetraacetic acid (EDTA) anticoagulated buffer supplemented with 1% endotoxin-free BSA in sterile PBS. Neutrophils were isolated by Percoll gradient centrifugation as described previously. The purity of neutrophils was more than 90% as confirmed by the Wright-Giemsa stain.
Mouse or human neutrophils were resuspended in HEPES-supplemented phenol red-free RPMI1640 medium and 1.5 × 10^4 cells were seeded per well in a 96-well plate. After incubating for 20 min at 37 °C and 5% CO2, the cells were stimulated with vehicle control or ionomycin (Sigma, Catalog No: I24222) (4 µM) for 4 h. Neutrophils were fixed with 4% paraformaldehyde (PFA), washed and permeabilized (0.1% Triton X-100, 0.1% sodium citrate) for 10 min at 4 °C. Subsequently, neutrophils were incubated with blocking buffer (2.5% BSA, 0.5% Tween-20 in 1 × PBS) at room temperature for an hour followed by overnight incubation with the primary antibody against citrullinated histone H4 (H4Cit, 1:250, catalog number: 07-596, Millipore, Burlington, MA). […] Images were obtained with a Zeiss Axiovert 200 M wide-field fluorescence microscope (Zeiss, Oberkochen, Germany) with the Zeiss AxioVision software. The percentages of H4Cit positive neutrophils and neutrophil extracellular traps (NETs) were calculated by quantifying more than 200 randomly selected cells. […]

[2] = Microsomal stability, RLM; assay type: in vitro ADME, rat; conditions: 1 µM, liver microsomes 0.5 mg/mL; one range given for HLM/MLM/DLM/RLM
Method: (§1) Microsomal stability: Liver microsomes (0.5 mg/mL) from different species were incubated with JBI-589 (1 µM) with or without NADPH (1 mM) at 37 °C for 30 min in potassium phosphate buffer (pH 7.4) and then reaction was stopped with quenching solution (0.5% Formic acid in internal standard (IS) containing ACN). Resulting samples were centrifuged and supernatant was taken for LC–MS/MS analysis. Percent metabolism was calculated as follows: % Metabolized: [1 − (test area ratio/control area ratio)] *100.

PBMCs = assay: Cell Titer Glo viability assay, PBMC; assay type: cell-based, human; conditions: 24 h, up to 10 µM
Method: In a K2EDTA vacutainer, 50 mL blood from a healthy human donor was collected, diluted 1:1 with PBS, and gently layered on Histopaque-1077. The tube was centrifuged at 400 g for 30 min at room temperature in a swinging bucket rotor without brakes or acceleration. After centrifugation, the tubes were gently removed from the centrifuge to avoid disturbing the layers of RBC at the bottom, PBMC in the middle, and clear supernatant at the top. Plasma and platelet-rich upper layer was aspirated using a sterile pipette leaving the mononuclear cell layer (buffy coat) undisturbed at the interphase. This buffy coat layer was transferred with care to a fresh conical 50 mL tube, resuspended in PBS buffer and the tube was centrifuged for 10 min at 300 g at room temperature, and the resultant cell pellet was resuspended in complete RPMI medium. After repeating this step twice, the resultant isolated cells were used for the experiments.
The CellTiter-Glo luminescent cell viability assay was performed on neutrophils/peripheral blood mononuclear cells according to the manufacturer’s instructions (Promega, catalog number: G7570)[35]. Breifly, 0.25 million cells of Neutrophils /PBMC were seeded in a black 96 well clear bottom plate. Compound was added at desired concentrations in 1% DMSO. […] Luminescence was recorded with Perkin Elmer envision 2103 multilabel reader.

[3] = Microsomal stability, MLM; assay type: in vitro ADME, mouse; conditions: 1 µM, liver microsomes 0.5 mg/mL; one range given for HLM/MLM/DLM/RLM
Method: as §1

IC50 [1]: 0.122 µM and 0.123 µM
RLM % metabolized @ 30 min [2]: 25-50%
MLM % metabolized @ 30 min [3]: 25-50%
SMILES: Cc1c(-c2cc3ccccc3n2Cc2ccc(F)cc2)nc2cc(C(=O)N3CCC[C@@H](N)C3)ccn12 [JBI-589, (R)-(3-aminopiperidin-1-yl)(2-(1-(4-fluorobenzyl)-1H-indol-2-yl)-3-methylimidazo[1,2-a]pyridin-7-yl)methanone]
H4Cit positivity (mouse neutrophils): markedly diminished
NET formation (mouse neutrophils): markedly diminished
viability of PBMCs (PBMCs): minimal or no changes
